According to EP0495091B1 (Metabasis Therapeutics Inc., priority 1990, dated 1992):
Values joined by “and” are separate entries in the source; they are usually repeats but may differ in a detail not shown here. Equal entries are not always repeated. Where two headings read alike, the source gives them in different places.

Legend:
[1] = system: longitudinal muscle from the guinea pig ileum; assay: Inhibition of stimulated contraction in isolated ileum; details: concentration which inhibited electrically stimulated contraction by 50%, read-out: IC50
Description: Parallel platinum electrodes were used to deliver electrical current at 1 minute intervals at a voltage adequate to induce contraction of 90% of maximal.

[2] = system: coronary endothelial cells; assay: Adenosine release from isolated cells under net ATP breakdown; type: cell-based; details: 50 µM test compound
Description: In this experimental model the cells were treated with 50 µM of the test compound and incubated for 16 hours at 37°C. Cells were then washed with phosphate-buffered saline and resuspended in standard culture medium containing no glucose (to inhibit glycolysis), 50 µM antimycin A (to inhibit oxidative phosphorylation) and 20 µM deoxycoformycin (to inhibit adenosine utilization by adenosine deaminase). This treatment was designed to simulate ischemic condition by inducing net ATP breakdown. Media was then processed for HPLC.

[3] = system: platelet aggregation in human whole blood; assay: Inhibition of platelet aggregation in human whole blood; type: cell-based; details: Homo sapiens, Platelet; 10 minutes at 37°C; 10 µM adenosine added 5 minutes before; ADP (6-25 µM) induced; impedance technique
Description: Whole blood was drawn from healthy donors and collected in 0.1 vol. of sodium citrate to prevent coagulation. Platelet aggregation was measured by the impedance technique using a Whole Blood Aggregometer.

Isolated rat hearts = assay: Improved functional recovery in isolated hearts (Langendorff, post-ischemic LVDP); details: 30 min ischemia, 30 min reperfusion, number in brackets = hearts
Description: Isolated rat hearts were cannulated via the ascending aorta and attached to a perfusion apparatus according to the method of Langendorff. The hearts were perfused at a constant pressure of 100 cm of H2O with a modified Krebs-Henseleit buffer (pH 7.4) at 37°C. As a measure of heart function, left ventricular developed pressure (LVDP) was continuously monitored. Following equilibration of the hearts for a period of 30 min., the hearts were subjected to reduced flow i.e. ischemia, by reducing the pressure to 10 cm of H2O for 30 min. Flow was then restored by returning the pressure to its original level (100 cm of H2O) for a further 30 min.

[4] = Oral bioavailability and half-life in fasted adult beagles; details: beagle, dog, in vivo, fasted adult beagles
Description: Heparinized blood and urine were collected at selected intervals over 24 hours. Each sample was chilled, centrifuged at 4°C and frozen prior to HPLC analysis.

[5] = target: T1, NBTI-specific adenosine transport site (Homo sapiens, UniProt Q99808); assay: [3H]-NBTI binding assay; details: 50% displacement of bound [3H]-NBTI (0.5 nM); neuronal membrane protein, 30 minutes, pH 7.4, room temperature; read-out: ED50 (the source's name)
T1 construct: incubated for 30 minutes with 0.5 mg neuronal membrane protein together with 0.5 nM [^3H]-NBTI; from tissue
T1 sequence (Q99808 1-456): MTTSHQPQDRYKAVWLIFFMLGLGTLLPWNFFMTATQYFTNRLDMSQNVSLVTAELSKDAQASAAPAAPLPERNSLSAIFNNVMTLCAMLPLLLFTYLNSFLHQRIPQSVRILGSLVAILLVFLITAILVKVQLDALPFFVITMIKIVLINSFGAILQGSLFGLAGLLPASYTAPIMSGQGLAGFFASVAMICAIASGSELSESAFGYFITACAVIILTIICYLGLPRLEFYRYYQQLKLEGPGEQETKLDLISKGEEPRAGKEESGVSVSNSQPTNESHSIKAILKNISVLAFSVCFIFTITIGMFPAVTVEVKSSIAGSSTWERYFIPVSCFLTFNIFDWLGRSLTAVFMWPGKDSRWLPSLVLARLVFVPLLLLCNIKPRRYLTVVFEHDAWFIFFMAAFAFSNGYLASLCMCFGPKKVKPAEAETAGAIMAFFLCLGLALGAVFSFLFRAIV
Description: Increasing concentrations of the test compounds were incubated for 30 minutes with 0.5 mg neuronal membrane protein together with 0.5 nM [^3H]-NBTI in a Tris buffer (pH 7.4) at room temperature. The assays were quenched and membranes collected by rapid filtration. Filters were then solubilized and radioactivity determined by scintillation counting.

[6] = system: coronary endothelial cells; assay: Inhibition of adenosine utilization in cell culture; type: cell-based; details: Endothelial cell, 1 µM [3H] adenosine, 15 minutes, read-out: Inhibition of Adenosine Utilization (%)
Description: Inhibition of adenosine utilization was determined by measuring the concentration of extracellular adenosine by scintillation counting following separation by thin layer chromatography (TLC).

ischemic rat hearts = assay: Rat heart ischemia model, tissue adenosine levels; type: in vivo, rats; details: intraperitoneal injection, hearts excised after 60 minutes, incubated 60 minutes at 37°C, HPLC
Description: Male rats were injected intraperitonealy with either the AICA riboside analog, AICA riboside or saline, as a control. After 60 minutes, the hearts were excised and incubated at 37°C for a further 60 minutes. Tissue extracts were prepared and analyzed for adenosine by high performance liquid chromatography (HPLC). […]

male Mongolian gerbils = assay: Experimental stroke model (gerbil brain ischemia); type: in vivo; details: pretreatment with 500 mg/kg; bilateral carotid occlusion for 5 minutes; histology after seven days
Description: In this test, male Mongolian gerbils were anesthetized with 2-3% halothane in N20:02 and the common carotid arteries exposed. Ischemia was then induced by bilateral occlusion of both common carotid arteries for 5 minutes. Seven days following the ischemic insult, brains were removed and processed for histology.

[7] = cited from earlier work
[8] = target: T2, calf intestinal musosa adenosine deaminase (Bos taurus, UniProt P56658); assay: Adenosine deaminase activity inhibition; type: biochemical; details: 80 µM adenosine, pH 7.0, 10 minutes at 37°C
T2 construct: calf intestinal musosa adenosine deaminase; from tissue; host or cells: calf intestinal mucosa
T2 sequence (P56658 1-363): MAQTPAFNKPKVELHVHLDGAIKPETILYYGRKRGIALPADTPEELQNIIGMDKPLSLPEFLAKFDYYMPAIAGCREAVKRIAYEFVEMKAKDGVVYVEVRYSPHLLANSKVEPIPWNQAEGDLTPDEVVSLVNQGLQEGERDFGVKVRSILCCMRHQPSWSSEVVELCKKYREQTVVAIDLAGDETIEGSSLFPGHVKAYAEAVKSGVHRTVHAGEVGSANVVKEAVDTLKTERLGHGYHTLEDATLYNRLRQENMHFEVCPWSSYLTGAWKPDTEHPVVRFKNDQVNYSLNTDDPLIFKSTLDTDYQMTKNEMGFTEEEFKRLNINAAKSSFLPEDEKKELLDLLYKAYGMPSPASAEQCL
Description: Different concentrations of the test compounds were incubated in the assay mixture for 10 minutes at 37°C. The reaction was monitored continuously for oxidation of NADH from the change in absorbance at 340 nm.

Compound: NC(=O)c1ncn([C@@H]2O[C@H](CO)[C@@H](O)[C@H]2O)c1N [Compound No. 1, 5-amino-1-beta-D-ribofuranosylimidazole-4-carboxamide, reference compound]
- IC50 ([1]; Cavia porcellus): > 1000 µM
- Extracellular Adenosine Levels ([2]; 16 hours at 37°C, then no glucose, antimycin A, deoxycoformycin): 1.64 ± 0.12 µM
- Extracellular Adenosine Increase (%) ([2]; 16 hours, increase versus control): 15.5%
- IC50 [3]: 2700 µM
- Function Recovery % Baseline LVDP (% of hearts) (Isolated rat hearts; 5 µM in perfusion buffer): 64.2±1.5 (6) %
- Function Recovery % Baseline LVDP (% of hearts) (Isolated rat hearts; 20 µM in perfusion buffer): 79.4±1.3 (34) %
- bioavailability ([4]; oral, 10 mg/kg IV bolus and 20 mg/kg solution via stomach tube, read-out: Absolute Oral Bioavailability %): 8%
- half-life [4]: 21 min
- EC50 [5]: > 1000 µM
- inhibition at 5 µM ([6]; 5 µM test compound): 5 ± 2%
- inhibition at 50 µM ([6]; 50 µM test compound): 10 ± 1%
- Tissue Adenosine Levels (% Increase vs. Saline) (ischemic rat hearts): 30%

Compound: Nc1c(C(=O)NN2CCCCC2)ncn1[C@@H]1O[C@H](CO)[C@@H](O)[C@H]1O [Compound No. 36, 5-amino-4-(1-piperidinocarbamoyl)-1-β-D-ribofuranosylimidazole]
- Tissue Adenosine Levels (% Increase vs. Saline) (ischemic rat hearts): 34%

Compound: Nc1c(C(=O)NC2CCCC2)ncn1[C@@H]1O[C@H](CO)[C@@H](O)[C@H]1O [Compound No. 10, 5-Amino-1-beta-D-ribofuranosylimidazole-4-N-(cyclopentyl)carboxamide]
- Function Recovery % Baseline LVDP (% of hearts) (Isolated rat hearts; 5 µM in perfusion buffer): 83.7±0.7 (6) %
- Function Recovery % Baseline LVDP (% of hearts) (Isolated rat hearts; 20 µM in perfusion buffer): 84.5±3.5 (2) %
- EC50 [5]: 350 µM
- effect in a gerbil model of brain ischemia (hippocampal pyramidal cell survival) (male Mongolian gerbils): protective effects
- Tissue Adenosine Levels (% Increase vs. Saline) (ischemic rat hearts; listed as 10 (1-186)): 79% and 68%

Compound: Nc1ncnc2c1ncn2[C@@H]1O[C@H](CO)[C@@H](O)[C@H]1O [adenosine]
- half life of adenosine in blood [7]: < 0.167 min

Compound: Nc1c(C(=O)NCc2ccccc2)ncn1[C@@H]1O[C@H](CO)[C@@H](O)[C@H]1O [Compound No. 11, 5-Amino-1-beta-D-ribofuranosylimidazole-4-N-(benzyl)carboxamide]
- IC50 [1]: 200 µM
- Function Recovery % Baseline LVDP (% of hearts) (Isolated rat hearts; 5 µM in perfusion buffer): 77.2±5.8 (7) %
- Function Recovery % Baseline LVDP (% of hearts) (Isolated rat hearts; 20 µM in perfusion buffer): 85.7±6.2 (3) %
- effect in a gerbil model of brain ischemia (hippocampal pyramidal cell survival) (male Mongolian gerbils): protective effects
- Tissue Adenosine Levels (% Increase vs. Saline) (ischemic rat hearts; listed as 11 (1-226)): 53% and 45%

Compound: CO[C@@H]1[C@H](O)[C@@H](CO)O[C@H]1n1cnc(C(N)=O)c1N [Compound No. 20, 5-Amino-1-(2-O-methyl-β-D-ribofuranosyl)-imidazole-4-carboxamide]
- IC50 [8]: 1400 µM

Compound: CCO[C@@H]1[C@H](O)[C@@H](CO)O[C@H]1n1cnc(C(N)=O)c1N [Compound No. 34, 5-amino-1-(2-O-ethyl-β-D-ribofuranosyl)-4-imidazole carboxamide]
- IC50 [8]: 510 µM

Compound: Nc1c(C(=O)NC2CC2)ncn1[C@@H]1O[C@H](CO)[C@@H](O)[C@H]1O [Compound No. 12, 5-Amino-1-beta-D-ribofuranosylimidazole-4-N-(cyclopropyl)carboxamide]
- IC50 [1]: 400 µM
- Tissue Adenosine Levels (% Increase vs. Saline) (ischemic rat hearts): 29%
